Reference: PMC3494675, “Structure-Function Analysis of the Glioma Targeting NFL-TBS.40-63 Peptide Corresponding to the Tubulin-Binding Site on the Light Neurofilament Subunit” (PLoS ONE, 2012)
Square brackets hold non-standard residues; d marks the D form. Peptide text beside a SMILES is read from it. * marks the point of attachment. Biotin = O=C1N[C@H]2[C@H](CS[C@H]2CCCCC(=O)*)N1; pS = N[C@@H](COP(=O)(O)O)C(=O)O

Experiments:
[1] = tested on: T98G human glioblastoma cells; experiment: Peptide incorporation into T98G cells (immunocytochemistry, cell counting); assay type: cell-based; conditions: 6 hours; for Peptide incorporation (% of cells): T98G cells, 10 µM biotinylated peptide, Alexa-labeled avidin/streptavidin fluorescence microscopy, minimum 200 cells per experiment, mean ± S.E.M., triplicated; for Cell penetration / internalization in T98G cells (in words): 10 µM, immunocytochemistry, compared to original NFL-TBS.40-63
Method: (§1) Cells containing the biotinylated peptide were detected using Alexa-labeled avidin (green fluorescence) and those displaying a normal or a destroyed MT network were detected with an anti-tubulin antibody (red fluorescence) ( Figure 1A-B ). Then, we counted a minimum of 200 cells per slide containing or not the peptide, and with a normal or destroyed microtubule network ( Figure 1C ). As illustrated on Figure 1A glioblastoma cells contain a rich MT network. […] Cells were plated on cover slips and cultured in media containing biotinylated peptides (10 μM) for 6 hours. […] The cells were then incubated during 10 min in a 0.5% triton X-100 permeabilization solution, and washed 3 times in PBS. Next, they were incubated in a blocking solution (PBS 5% BSA) for 15 min, then incubated with mouse anti-ß-tubulin antibody (Sigma) 1/200 overnight. Tubulin and biotinylated peptides were localized using respectively Alexa 568 nm anti-mouse antibody and streptavidin Alexa 488 nm (Molecular Probes) 1/200 for 1 hour, followed by washing in PBS. […] Sigma) for 5 min, washed twice with PBS, then cover slips were mounted with an antifading solution. Observations were performed with an Olympus confocal microscope (BX50) using Fluoview.3.1. Software or a Leica DMI6000 inverted microscope and analyzed with Metamorph 7.1.7.0. software. We counted cells containing the peptide and cells displaying a destroyed MT network. Experiments were repeated at least three times, and a minimum of 200 cells was scored during each experiment.

[2] = tested on: T98G human glioblastoma cells; experiment: Disintegration of the microtubule network in T98G cells (anti-tubulin immunostaining, cell counting); assay type: cell-based; conditions: 6 hours; for Disintegration of MT (% of cells): T98G cells, 10 µM biotinylated peptide, anti-tubulin immunostaining, minimum 200 cells per experiment, mean ± S.E.M., triplicated; for Effect on MT network of T98G / glioma cells (in words): 10 µM, immunocytochemistry
Method: as §1

Row | SMILES | Peptide incorporation (% of cells) [1] | Disintegration of MT (% of cells) [2] | Cell penetration / internalization in T98G cells (in words) [1] | Effect on MT network of T98G / glioma cells (in words) [2]
1 | CC(C)C[C@H](NC(=O)[C@H](CO)NC(=O)[C@H](CO)NC(=O)[C@H](CO)NC(=O)[C@@H](NC(=O)[C@@H]1CCCN1C(=O)[C@H](C)NC(=O)[C@H](CO)NC(=O)[C@H](Cc1ccc(O)cc1)NC(=O)[C@H](CO)NC(=O)[C@H](C)NC(=O)[C@H](Cc1ccc(O)cc1)NC(=O)CCCC[C@@H]1SC[C@@H]2NC(=O)N[C@@H]21)C(C)C)C(=O)N[C@@H](CO)C(=O)N[C@H](C(=O)N[C@@H](CCCNC(=N)N)C(=O)N[C@@H](CCCNC(=N)N)C(=O)N[C@@H](CO)C(=O)N[C@@H](Cc1ccc(O)cc1)C(=O)N[C@@H](CO)C(=O)N[C@@H](CO)C(=O)N[C@@H](CO)C(=O)N[C@@H](CO)C(=O)NCC(=O)N[C@@H](CO)C(N)=O)C(C)C [Ser2Ala] (Biotin-YASYSAPVSSSLSVRRSYSSSSGS-NH2) | 5.9±6.4 % of cells | 23.5±1.1 % of cells | – | –
2 | CC(C)C[C@H](NC(=O)[C@H](CO)NC(=O)[C@H](CO)NC(=O)[C@H](CO)NC(=O)[C@@H](NC(=O)[C@@H]1CCCN1C(=O)[C@H](C)NC(=O)[C@H](CO)NC(=O)[C@H](Cc1ccc(O)cc1)NC(=O)[C@H](C)NC(=O)[C@H](CO)NC(=O)[C@H](Cc1ccc(O)cc1)NC(=O)CCCC[C@@H]1SC[C@@H]2NC(=O)N[C@@H]21)C(C)C)C(=O)N[C@@H](CO)C(=O)N[C@H](C(=O)N[C@@H](CCCNC(=N)N)C(=O)N[C@@H](CCCNC(=N)N)C(=O)N[C@@H](CO)C(=O)N[C@@H](Cc1ccc(O)cc1)C(=O)N[C@@H](CO)C(=O)N[C@@H](CO)C(=O)N[C@@H](CO)C(=O)N[C@@H](CO)C(=O)NCC(=O)N[C@@H](CO)C(N)=O)C(C)C [Ser3Ala] (Biotin-YSAYSAPVSSSLSVRRSYSSSSGS-NH2) | 0.8±1.2 % of cells | 19.1±0.9 % of cells | – | –
3 | CC(C)C[C@H](NC(=O)[C@H](CO)NC(=O)[C@H](CO)NC(=O)[C@H](CO)NC(=O)[C@@H](NC(=O)[C@@H]1CCCN1C(=O)[C@H](C)NC(=O)[C@H](C)NC(=O)[C@H](Cc1ccc(O)cc1)NC(=O)[C@H](CO)NC(=O)[C@H](CO)NC(=O)[C@H](Cc1ccc(O)cc1)NC(=O)CCCC[C@@H]1SC[C@@H]2NC(=O)N[C@@H]21)C(C)C)C(=O)N[C@@H](CO)C(=O)N[C@H](C(=O)N[C@@H](CCCNC(=N)N)C(=O)N[C@@H](CCCNC(=N)N)C(=O)N[C@@H](CO)C(=O)N[C@@H](Cc1ccc(O)cc1)C(=O)N[C@@H](CO)C(=O)N[C@@H](CO)C(=O)N[C@@H](CO)C(=O)N[C@@H](CO)C(=O)NCC(=O)N[C@@H](CO)C(N)=O)C(C)C [Ser5Ala] (Biotin-YSSYAAPVSSSLSVRRSYSSSSGS-NH2) | 16.0±1.4 % of cells | 23.6±1.6 % of cells | – | –
4 | CC(C)C[C@H](NC(=O)[C@H](CO)NC(=O)[C@H](CO)NC(=O)[C@H](C)NC(=O)[C@@H](NC(=O)[C@@H]1CCCN1C(=O)[C@H](C)NC(=O)[C@H](CO)NC(=O)[C@H](Cc1ccc(O)cc1)NC(=O)[C@H](CO)NC(=O)[C@H](CO)NC(=O)[C@H](Cc1ccc(O)cc1)NC(=O)CCCC[C@@H]1SC[C@@H]2NC(=O)N[C@@H]21)C(C)C)C(=O)N[C@@H](CO)C(=O)N[C@H](C(=O)N[C@@H](CCCNC(=N)N)C(=O)N[C@@H](CCCNC(=N)N)C(=O)N[C@@H](CO)C(=O)N[C@@H](Cc1ccc(O)cc1)C(=O)N[C@@H](CO)C(=O)N[C@@H](CO)C(=O)N[C@@H](CO)C(=O)N[C@@H](CO)C(=O)NCC(=O)N[C@@H](CO)C(N)=O)C(C)C [Ser9Ala] (Biotin-YSSYSAPVASSLSVRRSYSSSSGS-NH2) | 23.3±8.4 % of cells | 27.1±4.8 % of cells | penetrated in cells significantly although to a much lesser extent than the wt peptide | –
5 | CC(C)C[C@H](NC(=O)[C@H](CO)NC(=O)[C@H](C)NC(=O)[C@H](CO)NC(=O)[C@@H](NC(=O)[C@@H]1CCCN1C(=O)[C@H](C)NC(=O)[C@H](CO)NC(=O)[C@H](Cc1ccc(O)cc1)NC(=O)[C@H](CO)NC(=O)[C@H](CO)NC(=O)[C@H](Cc1ccc(O)cc1)NC(=O)CCCC[C@@H]1SC[C@@H]2NC(=O)N[C@@H]21)C(C)C)C(=O)N[C@@H](CO)C(=O)N[C@H](C(=O)N[C@@H](CCCNC(=N)N)C(=O)N[C@@H](CCCNC(=N)N)C(=O)N[C@@H](CO)C(=O)N[C@@H](Cc1ccc(O)cc1)C(=O)N[C@@H](CO)C(=O)N[C@@H](CO)C(=O)N[C@@H](CO)C(=O)N[C@@H](CO)C(=O)NCC(=O)N[C@@H](CO)C(N)=O)C(C)C [Ser10Ala] (Biotin-YSSYSAPVSASLSVRRSYSSSSGS-NH2) | 34.5±0 % of cells | 32.9±1.9 % of cells | penetrated in cells significantly although to a much lesser extent than the wt peptide | –
6 | CC(C)C[C@H](NC(=O)[C@H](C)NC(=O)[C@H](CO)NC(=O)[C@H](CO)NC(=O)[C@@H](NC(=O)[C@@H]1CCCN1C(=O)[C@H](C)NC(=O)[C@H](CO)NC(=O)[C@H](Cc1ccc(O)cc1)NC(=O)[C@H](CO)NC(=O)[C@H](CO)NC(=O)[C@H](Cc1ccc(O)cc1)NC(=O)CCCC[C@@H]1SC[C@@H]2NC(=O)N[C@@H]21)C(C)C)C(=O)N[C@@H](CO)C(=O)N[C@H](C(=O)N[C@@H](CCCNC(=N)N)C(=O)N[C@@H](CCCNC(=N)N)C(=O)N[C@@H](CO)C(=O)N[C@@H](Cc1ccc(O)cc1)C(=O)N[C@@H](CO)C(=O)N[C@@H](CO)C(=O)N[C@@H](CO)C(=O)N[C@@H](CO)C(=O)NCC(=O)N[C@@H](CO)C(N)=O)C(C)C [Ser11Ala] (Biotin-YSSYSAPVSSALSVRRSYSSSSGS-NH2) | 2.5±2.5 % of cells | 15.9±6.5 % of cells | – | –
7 | CC(C)C[C@H](NC(=O)[C@H](CO)NC(=O)[C@H](CO)NC(=O)[C@H](CO)NC(=O)[C@@H](NC(=O)[C@@H]1CCCN1C(=O)[C@H](C)NC(=O)[C@H](CO)NC(=O)[C@H](Cc1ccc(O)cc1)NC(=O)[C@H](CO)NC(=O)[C@H](CO)NC(=O)[C@H](Cc1ccc(O)cc1)NC(=O)CCCC[C@@H]1SC[C@@H]2NC(=O)N[C@@H]21)C(C)C)C(=O)N[C@@H](C)C(=O)N[C@H](C(=O)N[C@@H](CCCNC(=N)N)C(=O)N[C@@H](CCCNC(=N)N)C(=O)N[C@@H](CO)C(=O)N[C@@H](Cc1ccc(O)cc1)C(=O)N[C@@H](CO)C(=O)N[C@@H](CO)C(=O)N[C@@H](CO)C(=O)N[C@@H](CO)C(=O)NCC(=O)N[C@@H](CO)C(N)=O)C(C)C [Ser13Ala] (Biotin-YSSYSAPVSSSLAVRRSYSSSSGS-NH2) | 12.2±0.8 % of cells | 16.6±5.2 % of cells | – | –
8 | CC(C)C[C@H](NC(=O)[C@H](CO)NC(=O)[C@H](CO)NC(=O)[C@H](CO)NC(=O)[C@@H](NC(=O)[C@@H]1CCCN1C(=O)[C@H](C)NC(=O)[C@H](CO)NC(=O)[C@H](Cc1ccc(O)cc1)NC(=O)[C@H](CO)NC(=O)[C@H](CO)NC(=O)[C@H](Cc1ccc(O)cc1)NC(=O)CCCC[C@@H]1SC[C@@H]2NC(=O)N[C@@H]21)C(C)C)C(=O)N[C@@H](CO)C(=O)N[C@H](C(=O)N[C@@H](CCCNC(=N)N)C(=O)N[C@@H](CCCNC(=N)N)C(=O)N[C@@H](CC(=O)O)C(=O)N[C@@H](Cc1ccc(O)cc1)C(=O)N[C@@H](CC(=O)O)C(=O)N[C@@H](CO)C(=O)N[C@@H](CO)C(=O)N[C@@H](CO)C(=O)NCC(=O)N[C@@H](CO)C(N)=O)C(C)C [Ser17,19Asp] (Biotin-YSSYSAPVSSSLSVRRDYDSSSGS-NH2) | 29.0±12.7 % of cells | 18.6±6.8 % of cells | decreased internalization | not altered
9 | CC(C)C[C@H](NC(=O)[C@H](CO)NC(=O)[C@H](CO)NC(=O)[C@H](CO)NC(=O)[C@@H](NC(=O)[C@@H]1CCCN1C(=O)[C@H](C)NC(=O)[C@H](CO)NC(=O)[C@H](Cc1ccc(O)cc1)NC(=O)[C@H](CO)NC(=O)[C@H](CO)NC(=O)[C@H](Cc1ccc(O)cc1)NC(=O)CCCC[C@@H]1SC[C@@H]2NC(=O)N[C@@H]21)C(C)C)C(=O)N[C@@H](CO)C(=O)N[C@H](C(=O)N[C@@H](CCCNC(=N)N)C(=O)N[C@@H](CCCNC(=N)N)C(=O)N[C@@H](COP(=O)(O)O)C(=O)N[C@@H](Cc1ccc(O)cc1)C(=O)N[C@@H](COP(=O)(O)O)C(=O)N[C@@H](CO)C(=O)N[C@@H](CO)C(=O)N[C@@H](CO)C(=O)NCC(=O)N[C@@H](CO)C(N)=O)C(C)C [Ser17,19SerP] (Biotin-YSSYSAPVSSSLSVRR[pS]Y[pS]SSSGS-NH2) | 32±2.1 % of cells | 11.0±3.0 % of cells | decreased internalization | not altered
